Experimental data as given in US9249453B2, “Method for identifying a malodor inhibitor” (Kao Corporation, priority 2011, dated 2016).
“Also recorded” adds a separate entry of the source.

What was measured:
OR5P3 [1] = target: T1, OR5P3 (Homo sapiens, UniProt Q8WZ94); assay: Luciferase reporter assay: odorant response of OR5P3 expressed in HEK293 cells; type: cell-based; conditions: for response of olfactory receptor at different concentration: 0, 3, 10, 30, 100, 300, and 1000 μM odorant, OR5P3, FIG. 2/3
T1 construct: expressed in transfected cells; host or cells: HEK293
T1 sequence (Q8WZ94 1-311): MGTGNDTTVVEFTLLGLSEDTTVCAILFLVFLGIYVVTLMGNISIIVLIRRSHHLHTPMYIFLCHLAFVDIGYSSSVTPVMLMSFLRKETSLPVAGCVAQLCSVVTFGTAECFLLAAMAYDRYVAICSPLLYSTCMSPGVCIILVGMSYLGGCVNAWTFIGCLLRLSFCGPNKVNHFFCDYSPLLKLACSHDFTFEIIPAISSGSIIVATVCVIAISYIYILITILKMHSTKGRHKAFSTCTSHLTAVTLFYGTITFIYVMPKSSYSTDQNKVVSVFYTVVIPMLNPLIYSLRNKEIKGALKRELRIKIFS
Protocol: (§1) Each of the 369 types of human olfactory receptors was expressed in HEK293 cells. A reaction solution having a composition shown in Table 1 was prepared on a clean bench, and left to stand for 15 minutes. The solution was dispensed to each well of a 96-well plate (BD). Subsequently, HEK293 cells (100 μL, 3×10^5 cells/cm^2) were seeded in each well and cultured for 24 hours in an incubator at 37° C. and under 5% CO2 conditions.
(§2) The olfactory receptor expressed in HEK293 cells activates adenylate cyclase with the aid of Gαs present in cells, to thereby increase intracellular cAMP level. In this study, odorant response was measured by a luciferase reporter gene assay which monitored the intracellular cAMP level as the luminescence value derived from a firefly luciferase gene (fluc2P-CRE-hygro). Also, a Renilla luciferase gene fused downstream of a CMV promoter (hRluc-CMV) was also transfected to HEK293 cells as an internal standard to correct errors in gene transfer efficiency and number of cells.
(§3) The culture medium was removed from the culture plate produced in (3) above, and a solution (75 μL) containing an odorant substance (1 mM skatole) in CD293 medium (Invitrogen) was added to each well. […] Luciferase activity was measured by means of a Dual-Glo™ luciferase assay system (promega) according to an instruction manual thereof. The luminescence value derived from firefly luciferase induced by odorant stimulation was divided by the luminescence value of cells which were not stimulated with odorants. […]
(§4) In a manner similar to that employed in Example 1, each of olfactory receptor OR2W1 (SEQ ID NO: 2), OR5K1 (SEQ ID NO: 4), OR5P3 (SEQ ID NO: 6), and OR8H1 (SEQ ID NO: 8) was expressed with RTP1S mutant (SEQ ID NO: 12) in HEK293 cells. The response of each receptor to skatole (0, 3, 10, 30, 100, 300, and 1000 μM) was determined.
(§5) In a manner similar to that employed in Example 2, the response of each olfactory receptor to skatole and indole (each 0, 3, 10, 30, 100, 300, and 1000 μM) was determined.

OR8H1 [2] = target: T2, OR8H1 (Homo sapiens, UniProt Q8NGG4); assay: Luciferase reporter assay: odorant response of OR8H1 expressed in HEK293 cells; type: cell-based; conditions: for response of olfactory receptor at different concentration: 0, 3, 10, 30, 100, 300, and 1000 μM odorant, OR8H1, FIG. 2/3
T2 construct: expressed in transfected cells; host or cells: HEK293
T2 sequence (Q8NGG4 1-311): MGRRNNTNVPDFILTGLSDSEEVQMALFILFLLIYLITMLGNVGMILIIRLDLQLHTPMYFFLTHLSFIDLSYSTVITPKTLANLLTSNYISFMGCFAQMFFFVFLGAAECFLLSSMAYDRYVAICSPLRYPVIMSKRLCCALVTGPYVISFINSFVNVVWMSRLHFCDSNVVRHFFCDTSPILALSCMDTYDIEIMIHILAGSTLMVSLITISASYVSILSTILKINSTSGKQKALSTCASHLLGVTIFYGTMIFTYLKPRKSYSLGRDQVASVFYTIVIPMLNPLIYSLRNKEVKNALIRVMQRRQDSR
Protocol: as §1, §2, §3, §4, §5

OR5K1 [3] = target: T3, OR5K1 (Homo sapiens, UniProt Q8NHB7); assay: Luciferase reporter assay: odorant response of OR5K1 expressed in HEK293 cells; type: cell-based; conditions: for response of olfactory receptor at different concentration: 0, 3, 10, 30, 100, 300, and 1000 μM odorant, OR5K1, FIG. 2/3
T3 construct: expressed in transfected cells; host or cells: HEK293
T3 sequence (Q8NHB7 1-308): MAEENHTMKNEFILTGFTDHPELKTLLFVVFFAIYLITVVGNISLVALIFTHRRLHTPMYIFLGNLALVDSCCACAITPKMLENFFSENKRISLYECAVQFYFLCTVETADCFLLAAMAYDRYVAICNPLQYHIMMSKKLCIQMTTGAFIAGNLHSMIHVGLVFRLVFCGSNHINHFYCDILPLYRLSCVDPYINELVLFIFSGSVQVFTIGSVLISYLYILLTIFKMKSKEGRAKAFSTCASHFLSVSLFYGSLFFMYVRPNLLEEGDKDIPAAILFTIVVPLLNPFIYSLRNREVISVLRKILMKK
Protocol: as §1, §2, §3, §4, §5

OR2W1 [4] = target: T4, OR2W1 (Homo sapiens, UniProt Q9Y3N9); assay: Luciferase reporter assay: odorant response of OR2W1 expressed in HEK293 cells; type: cell-based; conditions: for response of olfactory receptor at different concentration: 0, 3, 10, 30, 100, 300, and 1000 μM odorant, OR2W1, FIG. 2/3
T4 construct: expressed in transfected cells; host or cells: HEK293
T4 sequence (Q9Y3N9 1-320): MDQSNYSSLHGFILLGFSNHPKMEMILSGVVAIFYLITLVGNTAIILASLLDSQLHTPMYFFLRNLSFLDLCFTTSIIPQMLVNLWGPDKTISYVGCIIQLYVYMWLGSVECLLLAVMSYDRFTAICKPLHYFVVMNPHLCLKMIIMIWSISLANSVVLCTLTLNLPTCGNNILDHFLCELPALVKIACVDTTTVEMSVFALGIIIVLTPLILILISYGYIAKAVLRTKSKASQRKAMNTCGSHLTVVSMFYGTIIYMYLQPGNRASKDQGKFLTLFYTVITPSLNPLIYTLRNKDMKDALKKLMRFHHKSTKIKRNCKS
Protocol: as §1, §2, §3, §4, §5

OR8H1 [5] = target: T2, OR8H1; assay: Luciferase reporter assay: suppression of the skatole response of OR8H1 expressed in HEK293 cells; type: cell-based; conditions: 4 h; test substance 100 μM mixed with 300 μM skatole, HEK293 cells expressing OR8H1; read-out: Inhibition rate 8H1
Protocol: as §1, with “A” for “Each of the 369 types of human olfactory receptors was expressed in HEK293 cells. A”
as §2
(§6) Cell culturing was performed for four hours in a CO2-incubator, whereby the luciferase gene sufficiently expressed in the cells. Luciferase activity was measured by means of a Dual-Glo™ luciferase assay system (promega) according to an instruction manual thereof. The luminescence value derived from firefly luciferase induced by odorant stimulation was divided by the luminescence value of cells which were not stimulated with odorants. The thus-obtained—called “fold increase”—was employed as an index for response intensity.
(§7) The response inhibition rate of a test substance was calculated as follows. Firstly, luminescence value derived from firefly luciferase induced by stimulation with skatole (X), and luminescence value in cells which expressed the same receptor but were not stimulated with skatole (Y) were determined. By subtracting Y from X, the receptor activity by stimulation with skatole alone (X−Y) was determined. Similarly, the luminescence value induced by stimulation with a mixture of skatole and a test substance (Z) was determined. Through subtracting Y (the luminescence value in cells which expressed the same receptor but were not stimulated with skatole) from Z, the receptor activity (Z−Y) by stimulation with a mixture of skatole and the test substance was obtained. From the thus-obtained receptor activity by stimulation with skatole alone (X−Y) and the receptor activity in the presence of a test material (Z−Y), the response inhibition rate of the test substance was calculated by the following equation: Inhibition rate (%)={1−(Z−Y)/(X−Y)}×100.
(§8) In each case, multiple independent experiments were performed in duplicate, and the average of each experiment was used.

[6] = Sensory test by panelists: suppression of skatole odor; type: in vivo; conditions: Example 6: test substance diluted by 1% with propylene glycol, n=3, FIG. 5
Protocol: A cotton ball was put into a glass bottle (Hakuyo. […] The glass bottle was left to stand for one night at room temperature, to thereby sufficiently evaporate the odorant molecule. The sensory test was performed by four panelists. In the case where skatole alone was added to a glass bottle, the odor intensity was rated to 5. Then, the malodor intensity in the case where skatole and a test substance were added was evaluated with a rating of 0 to 10 (by 0.5) (i.e., 20 ratings) In order to investigate specificity of malodor suppressing effect of a test substance identified in Example 4, the sensory test was also performed with hexanoic acid, a malodorous compound but structurally differs from skatole. In the experiment, hexanoic acid diluted by 1% with propylene glycol was used as a malodorous compound, and methyl dihydrojasmonate diluted by 1% with propylene glycol was used as a test substance.

[7] = Sensory test by panelists: suppression of hexanoic acid odor; type: in vivo; conditions: Example 6: hexanoic acid 1% and test substance 1% in propylene glycol, n=3, FIG. 5
Protocol: A cotton ball was put into a glass bottle (Hakuyo. Glass No. 11, capacity: 110 mL), and skatole diluted by 0.001% with propylene glycol (20 μL) and a test substance also diluted by 0.001% (20 μL) were added to the cotton ball. The glass bottle was left to stand for one night at room temperature, to thereby sufficiently evaporate the odorant molecule. The sensory test was performed by four panelists. In the case where skatole alone was added to a glass bottle, the odor intensity was rated to 5. Then, the malodor intensity in the case where skatole and a test substance were added was evaluated with a rating of 0 to 10 (by 0.5) (i.e., 20 ratings) In order to investigate specificity of malodor suppressing effect of a test substance identified in Example 4, the sensory test was also performed with hexanoic acid, a malodorous compound but structurally differs from skatole. In the experiment, hexanoic acid diluted by 1% with propylene glycol was used as a malodorous compound, and methyl dihydrojasmonate diluted by 1% with propylene glycol was used as a test substance.

OR5K1 [8] = target: T3, OR5K1; assay: Luciferase reporter assay: suppression of the skatole response of OR5K1 expressed in HEK293 cells; type: cell-based; conditions: 4 h; test substance 100 μM mixed with 300 μM skatole, HEK293 cells expressing OR5K1; read-out: Inhibition rate 5K1
Protocol: as §1, with “A” for “Each of the 369 types of human olfactory receptors was expressed in HEK293 cells. A”
as §2, §6, §7, §8

OR2W1 [9] = target: T4, OR2W1; assay: Luciferase reporter assay: suppression of the skatole response of OR2W1 expressed in HEK293 cells; type: cell-based; conditions: 4 h; test substance 100 μM mixed with 300 μM skatole, HEK293 cells expressing OR2W1; read-out: Inhibition rate 2W1
Protocol: as §1, with “A” for “Each of the 369 types of human olfactory receptors was expressed in HEK293 cells. A”
as §2, §6, §7, §8

OR5P3 [10] = target: T1, OR5P3; assay: Luciferase reporter assay: suppression of the skatole response of OR5P3 expressed in HEK293 cells; type: cell-based; conditions: test substance 100 μM mixed with 300 μM skatole, HEK293 cells expressing OR5P3
Protocol: as §1, with “A” for “Each of the 369 types of human olfactory receptors was expressed in HEK293 cells. A”
as §2, §6, §7, §8

Row | inhibition at 100 µM (OR8H1 [5]) | inhibition at 100 µM (OR5K1 [8]) | inhibition at 100 µM (OR2W1 [9]) | Inhibition rate 5P3 (OR5P3 [10]) | response of olfactory receptor (fold increase) (OR5P3 [1]; 1 mM odorant, OR5P3, FIG. 1) | response of olfactory receptor (fold increase) (OR8H1 [2]; 1 mM odorant, OR8H1, FIG. 1) | response of olfactory receptor (fold increase) (OR5K1 [3]; 1 mM odorant, OR5K1, FIG. 1) | response of olfactory receptor (fold increase) (OR2W1 [4]; 1 mM odorant, OR2W1, FIG. 1) | SMILES | response of olfactory receptor at different concentration (OR5P3 [1]) | response of olfactory receptor at different concentration (OR8H1 [2]) | response of olfactory receptor at different concentration (OR5K1 [3]) | response of olfactory receptor at different concentration (OR2W1 [4]) | suppression effect on skatole odor [6] | suppression effect on hexanoic acid odor [7]
1 |  |  |  |  |  |  |  |  | c1ccc2[nH]ccc2c1 [indole] | exhibited a response | exhibited a response | exhibited a response | exhibited a response |  | 
2 | 50 to 80% | < 20% | 50 to 80% | B (B >50%) |  |  |  |  | CCCCCC1C(=O)CCC1CC(=O)OC (stereo not drawn) [methyl dihydrojasmonate, Methyl 2-penthyl-3-oxocyclopent-1-yl acetate] |  |  |  |  | suppressed skatole odor | did not suppress hexanoic acid odor
3 |  |  |  |  | exhibited response | exhibited response | exhibited response | exhibited response | Cc1c[nH]c2ccccc12 [skatole] | dose-dependent response; also recorded: exhibited a response | dose-dependent response; also recorded: exhibited a response | dose-dependent response; also recorded: exhibited a response | dose-dependent response; also recorded: exhibited a response |  | 
